Source: patent publication US20240150396A1 (The Texas A&M University System, priority 2021, published 2024)
“And” between values parts separate entries of the source, which are not always exact repeats. Identical values can stand only once. “Also recorded” adds a separate entry of the source. Like-named read-outs stand apart in the source and are kept apart here.

Experiments:
cruzain = cruzain (Trypanosoma cruzi, UniProt P25779); assay: biochemical
Method in brief: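 Fluorogenic assay at 25 °C following AMC release (ex 360/em 460 nm), with typically 0.2 nM cruzain and 10% DMSO, at pH 7.5 or 5.5 buffer with 5 mM DTT.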

[1] = Host cell cytotoxicity in the T. cruzi infection model; format: cell-based, mouse; details: mouse
Method in brief: (§1)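 C2C12 murine cardiomyoblasts infected with T. cruzi were incubated with compound 48 h at 37 °C, fixed in 2% PFA and stained with 5 μg/ml DAPI. Automated microscopy imaging quantified host cells and parasites separately; host cytotoxicity derived as CC50.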

[2] = Solubility of cruzain inhibitors in 10% DMSO, light scattering; format: physicochemical
Description: Synthetic PVHIs such as 5-16 and 22-24 at final concentrations of 1-200 μM were added to 0.25 mL solutions of 10% DMSO (v/v) in clear 96-well Greiner plates, and absorbance at 620 nm was measured using a BioTek M2 Synergy plate reader at t=0 and 120 min to evaluate increased light scattering and precipitated inhibitor.

SARS-CoV-2 3CL protease = SARS-CoV-2 3CL protease (Severe acute respiratory syndrome coronavirus 2 (2019-nCoV) (SARS-CoV-2), UniProt P0DTD1); assay: biochemical; format: biochemical; details: pH 7.5; for Ki: read-out: Ki* 3CLpro
[3] = system: SARS-CoV-2 in Vero E6 cells; assay: Anti-CoV-2 activity in Vero E6 cells; format: cell-based
[4] = Detection of aldehyde content using phenylhydrazine; format: physicochemical; details: aqueous buffer, 1 mM phenylhydrazine, 2 hours
Description: Detection of Aldehyde Content Using Phenylhydrazine. In a 96-well clear microplate, compounds 52 and 36 in DMSO solutions, or pure DMSO as a control, were diluted into the above NMR buffer without addition of DTT to make 250 μL-samples, each containing 0.2 mM of compounds and 10% DMSO (v/v). Upon addition of 1M phenylhydrazine (0.25 μL), the formation of phenylhydrazone in these wells were continuously monitored for 2 hours by measuring UV absorbance at the maximal wavelength of 282 nm.

[5] = system: trypanosomes (T. b. brucei, T. cruzi); assay: Anti-trypanosomal activity, culture not stated; format: cell-based; details: culture (T. b. brucei PCF/BSF or T. cruzi-infected cardiomyoblasts) not stated
[6] = mice, intravenous administration, data not shown
[7] = system: C2C12 mouse cardiomyoblast cell line; assay: Host cell cytotoxicity in the T. cruzi infection model; format: cell-based
Method in brief: as §1

[8] = Ki* Cruzain, obtained >10 minutes following initiation of reaction by addition of enzyme, pH 7.5
[9] = apparent initial inhibition constant, 25° C., pH 7.5, read-out: Ki
[10] = apparent tight-binding inhibition constant, 25° C., pH 7.5, read-out: Ki*
[11] = conversion of EI* back to EI, from kobs replot or recovery after preincubation and dilution
[12] = obtained >10 minutes following initiation of reaction by addition of enzyme, pH 7.5, read-out: Ki* Cruzain

Chain of cruzain (P25779 123-467 limits assumed): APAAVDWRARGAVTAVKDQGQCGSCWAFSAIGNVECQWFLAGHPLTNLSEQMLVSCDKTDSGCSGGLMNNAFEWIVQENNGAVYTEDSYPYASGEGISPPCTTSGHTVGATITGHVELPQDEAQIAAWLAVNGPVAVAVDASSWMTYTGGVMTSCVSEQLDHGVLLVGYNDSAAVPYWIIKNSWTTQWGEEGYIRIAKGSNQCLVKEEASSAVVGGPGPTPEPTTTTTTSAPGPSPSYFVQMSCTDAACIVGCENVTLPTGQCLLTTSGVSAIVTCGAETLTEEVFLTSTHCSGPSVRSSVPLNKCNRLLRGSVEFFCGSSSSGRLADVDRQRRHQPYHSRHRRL

Row | Structure (SMILES) | Ki (cruzain; [8]) | Ki (cruzain; [9]) | Ki (cruzain; [10]) | k4 (cruzain; [11]) | ratio of Ki* of SMAI to Ki* of its free aldehyde (cruzain) | Ki (cruzain; [12]) | Ki (SARS-CoV-2 3CL protease) | EC50 [3] | CC50 [7] | further results
1 | O=C(N[C@@H](Cc1ccccc1)C(=O)N[C@H](/C=C/c1ccccn1)Cc1ccccc1)OCc1ccccc1 [Compound 11, Benzyl ((S)-1-Oxo-3-phenyl-1-(((S,E)-1-phenyl-4-(pyridin-2-yl)-but-3-en-2-yl)amino)propan-2-yl)carbamate] | 120 to 400 nM | 5500 ± 400 nM | 310 nM | 0.0012 ± 0.0002 s⁻¹ | – | – | – | – | – | CC50 at 48 h ([1]; host cardiomyoblasts, read-out: C2C12 Cytotoxicity CC50): > 10000 nM
2 | C[n+]1ccccc1/C=C/[C@H](Cc1ccccc1)NC(=O)[C@H](Cc1ccccc1)NC(=O)OCc1ccccc1.[I-] [Compound 12, 2-((S,E)-3-((S)-2-(((Benzyloxy)carbonyl)amino)-3-phenylpropanamido)-4-phenylbut-1-en-1-yl)-1-methylpyridin-1-ium Iodide] | 120 to 400 nM | 3800 ± 400 nM | 280 ± 80 nM | – | – | – | – | – | – | Ki (cruzain; Ki*, apparent tight-binding inhibition constant, 25° C., pH 7.5): 120 nM; CC50 at 48 h [1]: > 10000 nM; solubility ([2]; in 10% DMSO): ≥ 50 µM
3 | CN1CCN(C(=O)NC(Cc2ccccc2)C(=O)NC2Cc3ccccc3OC2O)CC1 (centres unmarked) [Compound 36] | – | – | – | (1.8±0.7)×10^−4 s^−1 | 94 | 47 nM | > 10000 nM | 7500 nM | – | residence time τ (cruzain; preincubation, dilution, recovery of cruzain activity): 26 min; free aldehyde by phenylhydrazine treatment [4]: no free aldehyde could be detected; also recorded: remained intact after 2 hours; EC50 [5]: 500 to 29000 nM; half-life [6]: short half-life
4 | C[n+]1ccccc1/C=C/[C@H](CCc1ccccc1)NC(=O)[C@H](Cc1ccccc1)NC(=O)OCc1ccccc1 [Compound 15, 2-((S,E)-3-((S)-2-(((Benzyloxy)carbonyl)amino)-3-phenylpropanamido)-5-phenylpent-1-en-1-yl)-1-methylpyridin-1-ium] | – | 760 ± 40 nM | 126 nM | ≈ 0 s^−1 | – | 120 to 400 nM | – | – | > 10000 nM | Ki (cruzain; calculated from global fitting to eq 6, read-out: Ki*): 600 ± 200 nM; k3 (cruzain; fitting to eq 4): 0.004 ± 0.001 s⁻¹; k3 (cruzain; global fitting to eq 6): 0.0012 ± 0.0004 s⁻¹; k4 (cruzain; global fitting to eq 6): 0.00019 ± 0.00005 s⁻¹; Ki (cruzain; global fitting to eq 6, read-out: Ki): 4300 ± 100 nM; Ki lower than the values with the three human cathepsins (cruzain; pH 5.5): over 10 fold; Ki (cruzain; pH 5.5, 25° C., 10% DMSO, read-out: Ki* Cruzain): 88 ± 2 nM; Ki (cruzain; pH 5.5, read-out: Ki* Cruzain): 88 nM; Ki (cruzain; replot of kobs vs inhibitor, fitting to eq 4, read-out: Ki): 2000 ± 900 nM; solubility [2]: ≥ 50 µM
5 | O=C(N[C@@H](Cc1ccccc1)C(=O)N[C@H]1Cc2ccccc2OC1O)OCc1ccccc1 (some centres unmarked) [Compound 30] | – | – | – | – | 110 | 49 nM | > 10000 nM | 5000 nM and 2500 to 7500 nM | > 10000 nM | Ki* 3CLpro (SARS-CoV-2 3CL protease): not an inhibitor of 3CL protease
